Patent US4837239A, “Cardiotonic phosphodiesterase inhibitors complexed with water soluble vitamins” (Syntex (U.S.A.) Inc., priority 1986, dated 1989)
Values after ≈ are worked out from the molar mass of the structure shown.

Tests used:
Type in all cases: physicochemical
[1] = Water solubility (phase solubility experiments) with and without water-soluble vitamin; conditions: for solubility: pH 2, read-out: water solubility (free base equivalent)
Description: (§1) The present inventors have discovered that the compounds of Formula (I) form water-soluble complexes with water-soluble vitamins such as ascorbic acid, nicotinamide thiamine and pyridoxine. The phenomenon of complex formation can be confirmed by phase solubility experiments (FIGS. 1 and 2), and by spectral shifts and changes in electrochemical responses of the vitamins in the presence of these compounds (FIGS. 4a and 4b). For example, FIGS. 4a and 4b show the results of a titration of excess ascorbic acid with the hydrogen sulfate salt of N-cyclohexyl-N-methyl-4-(2-oxo-1,2,3,5-tetrahydroimidazo-[2,1-b]quinazolin-7-yl)oxybutyramide. It is hypothesized that the relatively planar tricyclic structure of the compound and the presence of non-bonding electrons on ring heteroatoms renders the compound capable of charge donation to suitable acceptors. In addition, the compound may also function as a charge acceptor due to the presence of a formal positive charge on a ring nitrogen at low pH (i.e., due to the presence of the planar cyclic cationic portion of the compound). Thus, the interaction with the water-soluble vitamin may be defined in terms of the existence of a charge transfer complex, resulting in enhanced water-solubility. […] The decrease in current is due to a lower diffusion coefficient of the complex.
(§2) The improvement in solubility in the presence of water-solublevitamins is specifically illustrated by FIGS. 1 and 2. […] The solubility is still further enhanced by the lyophilization process of the present invention. For example, if the lyophilization procedure described below is followed, N-cyclohexyl-N-methyl-4-(2-oxo-1,2,3,5-tetrahydroimidazo-[2,1-b]quinazolin-7-yl)oxybutyramide is water-soluble to the extent of about 5,000 μg/ml at pH2 using 10% ascorbic acid (See FIG. 5).

[2] = Water solubility after complexation with ascorbic acid and lyophilization
Experimental: as §2
6.5 grams of the sulfate salt of N-cyclohexyl-N-methyl-4-(2-oxo-1,2,3,5-tetrahydroimidazo[2,1-b]quinazolin- 7-yl)oxyburyamide were dissolved, along with 100 grams of ascorbic acid, 500 ml of tert-butyl alcohol, sufficient sulfuric acid to adjust the pH to 2.0, and sufficient water to bring the volume to 1 liter. The solution was stirred at room temperature for about 10 minutes and filtered with a 0.22 micron Milipore™ cellulose filter. 5 Milliliters of the solution were then dispensed into a 10 ml vial for lyophilization. In the lyophilization procedure, the condenser temperature was initially set to give a shelf temperature of -60° C., and the pressure was initially atmospheric. After the product had frozen, the pressure was gradually dropped to 10 milliTorr, and the vacuum was held for about a day. […]

[3] = Solution-phase stability / shelf life (kinetic studies)
Description: A significant advantage of the lyophilization procedure of the present invention is that it provides for an extended shelf life as compared to that of the class of ocyalkylamides or even their vitamin complexes in solution. For example, the shelf life of a solution of the ascorbic acid complex of N-cyclohexyl-N-methyl-4-(2-oxo-1,2,3,5-tetrahydro-imidazo-[2,1-b]quinazolin-7-yl) oxybutyramide is only about 5 days. The lyophilized product prepared according to the formulation method of the present invention can be expected to permit a shelf life of at least two years.
The reason for the generally brief shelf lives in solution is that the class of oxyalkylamides has limited solution-phase stability. […] At pH 2, at which the compound is formulated, shelf life (T90) is less than a week. In a concentrated form in neat dimethylacetamide, polyethylene glycol or the like, the T90 is only about three weeks.

[4] = Solid state stability in lyophilized powders at accelerated temperature and various states of humidity; conditions: for Appearance (Color): after 7 days
Experimental: Accordingly, in order to maximize the stability of such a compound for parenteral administration therapy, the present inventors have developed a lyophilization procedure. The lyophilization substantially removes water: the primary nucleophile responsible for the degradative hydrolysis of the compound in solution.
^a Made from 2 mL of tBuOH/AA/H2 O (50/10/40) with pH = 2.0 and
N--cyclohexylN--methyl4-(2-oxo-1,2,3,5-tetrahydroimidazo-2,1-bquinazolin-
-yl)oxybutyramide 130 mL
^b Capped means: not stored in the desiccator with the vial sealed.
47% RH capped and 47% RH holes mean: stored in a 47% relatively humidity
desiccator with the vial capped or covered with aluminum foil with 4 hole
in the foil respectively.
6.5 grams of the sulfate salt of N-cyclohexyl-N-methyl-4-(2-oxo-1,2,3,5-tetrahydroimidazo[2,1-b]quinazolin- 7-yl)oxyburyamide were dissolved, along with 100 grams of ascorbic acid, 500 ml of tert-butyl alcohol, sufficient sulfuric acid to adjust the pH to 2.0, and sufficient water to bring the volume to 1 liter. The solution was stirred at room temperature for about 10 minutes and filtered with a 0.22 micron Milipore™ cellulose filter. 5 Milliliters of the solution were then dispensed into a 10 ml vial for lyophilization. In the lyophilization procedure, the condenser temperature was initially set to give a shelf temperature of -60° C., and the pressure was initially atmospheric. After the product had frozen, the pressure was gradually dropped to 10 milliTorr, and the vacuum was held for about a day. Still under vacuum, the shelf temperature was slowly raised by incrementally increasing the temperature to the following values for about 6 hours at each value: -40° C., -20° C.; -10° C.; 0° C.; and 15°-25° C. During this lyophilization process, all the butanol and water were removed. The final lyophilized powder comprised 32.5 milligrams of N-cyclohexyl-N-methyl-4-(2-oxo-1,2,3,5-tetrahydroimidazo-[2,1-b]quinazolin-7-yl)oxybutyramide sulfate salt and 500 milligrams of ascorbic acid, some residual water (4% w/w) and tert-butyl alcohol (3% w/w) per vial.

[5] = Electrochemical titration of excess ascorbic acid with the drug (FIGS. 4a and 4b); conditions: titration of excess ascorbic acid with hydrogen sulfate salt, in solution
Description: as §1

[6] = 40 °C., 47% RH capped (first line)
[7] = 40 °C., 47% RH capped (second line)

## CN(C(=O)CCCOc1ccc2c(c1)CN1CC(=O)NC1=N2)C1CCCCC1 [N-cyclohexyl-N-methyl-4-(2-oxo-1,2,3,5-tetrahydroimidazo-[2,1-b]quinazolin-7-yl)oxybutyramide]
[1]; in the presence of water soluble vitamins, and ethanol and propylene glycol (FIG. 2)
  water solubility: improved water solubility
[1]; in the presence of water-soluble vitamins (FIG. 1)
  water solubility: improved water solubility
[1]; pH2, absence of water-soluble vitamin
  solubility: ~120 µg/mL
[1]; water with 10% ascorbic acid, pH2, in the presence of 10% (about 0.6M) ascorbic acid
  solubility: ~420 µg/mL
[2]; complexation with a water soluble vitamin and lyophilization (FIG. 5)
  solubility: enhancement of solubility
[2]; pH 2, pH2, 10% ascorbic acid, lyophilized (FIG. 5), read-out: water solubility after lyophilization procedure
  solubility: ~5000 µg/mL (≈ 13 mM)
[3]; concentrated form in neat dimethylacetamide, polyethylene glycol or the like
  T90: about three
[3]; in solution
  pH of maximum stability: ~6
[3]; in solution, about pH 6
  estimation shelf life in solution: six
[3]; in solution, pH 2
  shelf life (T90): less than a week
[3]; kinetic studies in solution
  degradation catalysis: both acid and base catalyzed
[4]; 5 °C., Capped
  % Remaining, 7 days: 99.2%
  Appearance (Color): White
[4]; 25 °C., 47% RH capped
  % Remaining, 7 days: 100%
  % Remaining, 36 days: 100%
  Appearance (Color): White
[4]; 25 °C., Capped
  % Remaining, 7 days: 100%
  % Remaining, 36 days: 99.7%
  Appearance (Color): White
[4]; [6]
  % Remaining, 7 days: 100%
  % Remaining, 36 days: 96.7%
  Appearance (Color): Light yellow
[4]; 40 °C., 47% RH capped (second line), 5 days
  % Remaining, 5 days: 99.2%
[4]; [7]
  % Remaining, 7 days: 99.2%
  % Remaining, 36 days: 94.5%
  Appearance (Color): Light yellow
[4]; 40 °C., Capped
  % Remaining, 7 days: 100%
  % Remaining, 36 days: 94.4%
  Appearance (Color): Light yellow
[4]; RT, 47% RH holes
  % Remaining, 7 days: 100%
  % Remaining, 36 days: 100%
  Appearance (Color): White
[5]
  electrochemical response of ascorbic acid: a shift in the peak potential and a reduction of the peak current of ascorbic acid
